Patent US11285139B2, “Treatment of CNS conditions” (Takeda Pharmaceutical Company Limited, priority 2017, dated 2022)

Assays:
Format in all cases: in vivo
[1] = single-rising dose (SRD) first-in-human study, safety evaluation
Procedure: (§1) Four clinical studies including a single-rising dose (SRD) first-in-human study, a single-dose positron emission tomography (PET) target occupancy study, a multiple-rising dose (MRD) study, and a single-dose relative bioavailability (BA) and food-effect study were conducted.

CH24H = target: T1, CH24H (Homo sapiens, UniProt Q9Y6A2); assay: single-dose positron emission tomography (PET) target occupancy study
T1 construct: single-dose positron emission tomography (PET) target occupancy study; from tissue; host or cells: brain of study participants, in vivo (brain is inferred from the statement that CH24H is expressed in neurons)
T1 sequence (Q9Y6A2 whole entry): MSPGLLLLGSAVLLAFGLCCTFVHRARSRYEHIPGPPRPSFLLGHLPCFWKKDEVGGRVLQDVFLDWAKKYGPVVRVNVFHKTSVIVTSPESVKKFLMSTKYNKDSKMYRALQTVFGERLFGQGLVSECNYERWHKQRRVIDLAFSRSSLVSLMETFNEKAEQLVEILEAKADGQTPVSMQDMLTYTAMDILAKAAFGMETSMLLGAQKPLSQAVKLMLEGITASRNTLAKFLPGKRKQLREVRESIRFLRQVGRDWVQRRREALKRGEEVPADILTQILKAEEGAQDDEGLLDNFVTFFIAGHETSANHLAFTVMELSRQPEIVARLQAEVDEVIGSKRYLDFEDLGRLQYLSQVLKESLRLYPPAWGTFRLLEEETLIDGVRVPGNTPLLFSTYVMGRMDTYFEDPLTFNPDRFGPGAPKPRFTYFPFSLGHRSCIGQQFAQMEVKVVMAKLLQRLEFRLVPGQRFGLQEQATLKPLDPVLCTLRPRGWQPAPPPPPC
Procedure: as §1
The pharmacokinetics (PK) and pharmacodynamics (PD) of (4-benzyl-4-hydroxypiperidin-1-yl) (2,4′-bipyridin-3-yl)methanone were characterized in these studies.

Scn1a+/−mice = assay: spontaneous seizures in Scn1a+/− mouse model of Dravet syndrome; conditions: chow containing 0.02% (w/w) for 2 weeks, started at 17-18 days after birth; control group 23.9%
Procedure: The following Example provides data from a heterozygous deletion of a Scn1a mouse model (Scn1a+/−mice) of Dravet syndrome, a developmental epileptic encephalopathy subtype. Myoclonic and generalized tonic-clonic seizures are observed, which correlate to symptoms in humans. Therefore, (4-benzyl-4-hydroxypiperidin-1-yl) (2,4′-bipyridin-3-yl)methanone was tested in Scn1a+/−mice for its potential effects on seizure. At 17-18 days after birth, mice were weaned and started on treatment either with control chow or chow containing (4-benzyl-4-hydroxypiperidin-1-yl) (2,4′-bipyridin-3-yl)methanone 0.02% (w/w) for 2 weeks. Spontaneous seizures were continuously monitored. The seizure free rate during the study period for the control group was 23.9%.

With `O=C(c1cccnc1-c1ccncc1)N1CCC(O)(Cc2ccccc2)CC1` [(4-benzyl-4-hydroxypiperidin-1-yl) (2,4′-bipyridin-3-yl)methanone] the “serious pretreatment events or post treatment adverse events” value ([1]; all cohorts, 15-1350 mg single oral dose) was “No serious pretreatment events or post treatment adverse events were reported”, the safety and tolerability ([1]; doses up to 1350 mg single dose, healthy male and female subjects) was “generally safe and well tolerated” and the “plasma 24HC concentrations” value (CH24H) was “dose-dependent decreases”. For the same compound, the PET occupancy measurements (CH24H; correlated with circulating levels of 24HC) was “dose- and time-dependent” and the “seizure free rate during the study period” value (Scn1a+/−mice) was 91.7%.
